One test addresses MELK (Homo sapiens, UniProt Q14680). The experiment in a line: Kinase assay: MELK activity, phosphorylation of FITC-labeled histone H3 peptide measured by IMAP fluorescence polarization. Type of test: biochemical. Summed up: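 Compounds, serially diluted from 12.5 mM DMSO stocks to 1% final DMSO, were tested with FITC-labeled histone H3 peptide as substrate. The reaction was stopped with progressive binding solution. Fluorescence polarization was read after 0.5 hour at room temperature.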

Another test relates to T47D cells. The experiment in a line: Cell-based assay: anti-proliferative activity, Cell Counting Kit-8, 72 hours (T47D). Summed up: (§1)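 Anti-MELK western blot on crude lysates → MELK status per line. Cells plated 96-well, compound exposure, CCK-8 readout at 72 h; IC50 calculated.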
For a further test, the system named is A549 cells. The test can be described thus: Cell-based assay: anti-proliferative activity, Cell Counting Kit-8, 72 hours (A549). Conditions: 72 hours. Summed up:
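Cell Counting Kit-8 read-out of A549 growth after 72 hours of inhibitor exposure, cells plated in 96-well format. Values reported as IC50.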

Another test relates to 22Rv1 cells. The experiment in a line: Cell-based assay: anti-proliferative activity, Cell Counting Kit-8, 72 hours (22Rv1).
Another test has as its system HT-1197 cells. The experiment in a line: Cell-based assay: anti-proliferative activity, Cell Counting Kit-8, 72 hours (HT-1197, negative control without MELK expression). The note with it: HT1197 cells (negative control, no MELK expression), 72 hours. Summed up: as §1
Another test has as its system DU4475 cells. The experiment in a line: Cell-based assay: anti-proliferative activity, Cell Counting Kit-8, 72 hours (DU4475).
The mark [1] stands for this setting: MELK kinase assay, IMAP fluorescence polarization, 50 micro-M ATP, read-out: IC50 (μM) (kinase assay).
[2] abbreviates: read-out: IC50 (μM) (kinase assay).

Counter-ions that a name gives are not always drawn. Like-named read-outs stand apart in the source and are kept apart here.

Chain of MELK (Q14680 whole entry, looked up): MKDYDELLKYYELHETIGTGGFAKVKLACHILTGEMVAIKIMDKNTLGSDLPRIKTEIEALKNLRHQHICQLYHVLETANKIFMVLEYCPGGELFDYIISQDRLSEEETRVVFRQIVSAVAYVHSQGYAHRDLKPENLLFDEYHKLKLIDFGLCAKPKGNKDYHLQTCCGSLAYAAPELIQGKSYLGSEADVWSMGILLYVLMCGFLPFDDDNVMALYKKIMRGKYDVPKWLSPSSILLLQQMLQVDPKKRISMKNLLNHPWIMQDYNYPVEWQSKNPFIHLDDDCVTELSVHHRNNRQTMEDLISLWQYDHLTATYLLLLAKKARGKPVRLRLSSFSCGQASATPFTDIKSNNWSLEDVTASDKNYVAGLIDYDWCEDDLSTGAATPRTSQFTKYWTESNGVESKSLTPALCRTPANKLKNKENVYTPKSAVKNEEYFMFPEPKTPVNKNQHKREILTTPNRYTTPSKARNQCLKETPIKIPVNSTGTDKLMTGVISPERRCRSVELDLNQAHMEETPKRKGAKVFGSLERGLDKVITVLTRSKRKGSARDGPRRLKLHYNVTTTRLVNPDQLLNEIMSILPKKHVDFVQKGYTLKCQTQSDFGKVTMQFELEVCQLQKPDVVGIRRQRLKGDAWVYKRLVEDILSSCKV

For `CN(C)CCN1CCC(Nc2c(C(=O)C3CC3)cnc3ccc(-c4cc(Cl)c(O)c(Cl)c4)cc23)CC1` [Example 820, cyclopropyl(6-(3,5-dichloro-4-hydroxyphenyl)-4-(1-(2-(dimethylamino)ethyl)piperidin-4-ylamino)quinolin-3-yl)methanone], the IC50 at MELK (setting [1]) was 0.0018 µM; in the test on T47D cells (72 hours), 0.32 µM; with A549 cells, 0.46 µM; with 22Rv1 cells, 0.82 µM; in the test on HT-1197 cells, 2.9 µM; in the test with DU4475 cells, 0.15 µM.

For `CNC1CCCN(c2ccc(Nc3c(C(C)=O)cnc4ccc(-c5cc(Cl)c(O)c(Cl)c5)cc34)cn2)C1` (stereo not drawn) [Example 806, 1-(6-(3,5-dichloro-4-hydroxyphenyl)-4-((6-(3-(methylamino)piperidin-1-yl)pyridin-3-yl)amino)quinolin-3-yl)ethanone trihydrochloride], the concentration for half-maximal inhibition (IC50) came to 0.0012 µM against MELK; 0.027 µM in the test with T47D cells (Homo sapiens, T47D, 72 h); 0.054 µM in the test with A549 cells (Homo sapiens, A549, 72 h); 0.039 µM in the test on 22Rv1 cells (Homo sapiens, 22Rv1, 72 h); 0.33 µM in the test on HT-1197 cells (Homo sapiens, HT1197, 72 h); 0.032 µM in the test on DU4475 cells (Homo sapiens, DU-4475, 72 h).

As to `COc1cc(-c2ccc3ncc(C(C)=O)c(N[C@H]4CC[C@H](CN5CCC[C@H]5CO)CC4)c3c2)cc(Cl)c1O` [Example 793, 1-(6-(3-chloro-4-hydroxy-5-methoxyphenyl)-4-((1S,4r)-4-(((S)-2-(hydroxymethyl)pyrrolidin-1-yl)methyl)cyclohexylamino)quinolin-3-yl)ethanone], the half-maximal inhibitory concentration (IC50) on MELK (setting [2]) came to 0.0018 µM; with T47D cells (Homo sapiens, T47D, 72 h), 0.15 µM; with A549 cells (Homo sapiens, A549, 72 h), 0.17 µM; with 22Rv1 cells (Homo sapiens, 22Rv1, 72 h), 0.34 µM; in the test with HT-1197 cells (Homo sapiens, HT1197, 72 h) it was 7.1 µM; in the test with DU4475 cells (Homo sapiens, DU-4475, 72 h) it was 0.33 µM.

Consider `CC(=O)c1cnc2ccc(-c3cc(Cl)c(O)c(Cl)c3)cc2c1Nc1ccc(OCCN(C)C)nc1` [Example 852, 1-(6-(3,5-dichloro-4-hydroxyphenyl)-4-(6-(2-(dimethylamino)ethoxy)pyridin-3-ylamino)quinolin-3-yl)ethanone hydrochloride], for which the IC50 on MELK (setting [1]) was determined as 0.0028 µM; in the test on T47D cells (Homo sapiens, T47D, 72 h) it was 0.16 µM; in the test with A549 cells (Homo sapiens, A549, 72 h) it was 0.29 µM; in the test on 22Rv1 cells (Homo sapiens, 22Rv1, 72 h), 0.55 µM; in the test with HT-1197 cells (Homo sapiens, HT1197, 72 h), 22 µM; in the test on DU4475 cells (Homo sapiens, DU-4475, 72 h), 0.088 µM.

`CNC1CCCN(c2ccc(Nc3c(C(=O)C4CC4)cnc4ccc(-c5cc(Cl)c(O)c(Cl)c5)cc34)cn2)C1` (stereo not drawn) [Example 807, cyclopropyl(6-(3,5-dichloro-4-hydroxyphenyl)-4-((6-(3-(methylamino)piperidin-1-yl)pyridin-3-ylamino)quinolin-3-yl)methanone trihydrochloride]: the 50% inhibitory concentration (IC50) at MELK (setting [2]) worked out at 0.0015 µM; in the test with T47D cells (Homo sapiens, T47D, 72 h) it was 0.058 µM; in the test with A549 cells (Homo sapiens, A549, 72 h), 0.056 µM; in the test on 22Rv1 cells (Homo sapiens, 22Rv1, 72 h) it was 0.055 µM; in the test on HT-1197 cells (Homo sapiens, HT1197, 72 h), 1.1 µM; with DU4475 cells (Homo sapiens, DU-4475, 72 h) it was 0.032 µM.

Regarding `CC(=O)c1cnc2ccc(-c3cc(F)c(O)c(Cl)c3)cc2c1Nc1cnn(C2CCN(C)CC2)c1` [Example 805, 1-(6-(3-chloro-5-fluoro-4-hydroxyphenyl)-4-(1-(1-methylpiperidin-4-yl)-1H-pyrazol-4-ylamino)quinolin-3-yl)ethanone hydrochloride], the IC50 on MELK (setting [2]) stood at 0.0028 µM; in the test with T47D cells (Homo sapiens, T47D, 72 h), 0.17 µM; in the test on A549 cells (Homo sapiens, A549, 72 h), 0.34 µM; in the test on 22Rv1 cells (Homo sapiens, 22Rv1, 72 h), 0.32 µM; with HT-1197 cells (Homo sapiens, HT1197, 72 h), 2.4 µM; in the test with DU4475 cells (Homo sapiens, DU-4475, 72 h), 0.11 µM.

Regarding `CC(=O)c1cnc2ccc(-c3cc(Cl)c(O)c(Cl)c3)cc2c1N[C@H]1CCC[C@H](CCN(C)C)C1` [Example 861, 1-(6-(3,5-dichloro-4-hydroxyphenyl)-4-(((1S,3R)-3-(2-(dimethylamino)ethyl)cyclohexyl)amino)quinolin-3-yl)ethanone hydrochloride], the 50% inhibitory concentration (IC50) stood at 0.0032 µM on MELK (setting [1]); 0.22 µM with T47D cells (Homo sapiens, T47D, 72 h); 0.25 µM with A549 cells (Homo sapiens, A549, 72 h); 0.24 µM with 22Rv1 cells (Homo sapiens, 22Rv1, 72 h); 1 µM in the test with HT-1197 cells (Homo sapiens, HT1197, 72 h); 0.19 µM in the test on DU4475 cells (Homo sapiens, DU-4475, 72 h).

With `CC(=O)c1cnc2ccc(-c3cc(Cl)c(O)c(Cl)c3)cc2c1Nc1ccc(N2CCC(N(C)C)C2)nc1` (stereo not drawn) [Example 854, 1-(6-(3,5-dichloro-4-hydroxyphenyl)-4-((6-(3-(dimethylamino)pyrrolidin-1-yl)pyridin-3-yl)amino)quinolin-3-yl)ethanone], the IC50 on MELK (setting [1]) is 0.0032 µM; with T47D cells (Homo sapiens, T47D, 72 h), 0.25 µM; in the test on A549 cells (Homo sapiens, A549, 72 h), 0.39 µM; in the test on 22Rv1 cells (Homo sapiens, 22Rv1, 72 h) it was 0.51 µM; in the test with HT-1197 cells, 10 µM; with DU4475 cells (Homo sapiens, DU-4475, 72 h) it was 0.28 µM.

For `CC(=O)c1cnc2ccc(-c3cc(Cl)c(O)c(Cl)c3)cc2c1N[C@H]1CC[C@H](CN2CCN(C)CC2)CC1` [Example 782, 1-(6-(3,5-dichloro-4-hydroxyphenyl)-4-(1R,4R)-4-((4-methylpiperazin-1-yl)methyl)cyclohexylamino)quinolin-3-yl)ethanone hydrochloride], the IC50 in the test with T47D cells (Homo sapiens, T47D, 72 h) was determined as 0.15 µM; in the test with A549 cells (Homo sapiens, A549, 72 h), 0.23 µM; with 22Rv1 cells (Homo sapiens, 22Rv1, 72 h), 0.41 µM; with HT-1197 cells (Homo sapiens, HT1197, 72 h), 5.9 µM; with DU4475 cells (Homo sapiens, DU-4475, 72 h), 0.16 µM.

With `CN(C)CCNc1ccc(Nc2c(C(=O)C3CC3)cnc3ccc(-c4cc(F)c(O)c(Cl)c4)cc23)cn1` [Example 776, (6-(3-chloro-5-fluoro-4-hydroxyphenyl)-4-(6-(2-(dimethylamino)ethylamino)pyridin-3-ylamino)quinolin-3-yl)(cyclopropyl)methanone], the half-inhibitory concentration (IC50) with T47D cells (Homo sapiens, T47D, 72 h) came to 0.073 µM; in the test with A549 cells (Homo sapiens, A549, 72 h) it was 0.08 µM; with 22Rv1 cells (Homo sapiens, 22Rv1, 72 h), 0.15 µM; in the test on HT-1197 cells (Homo sapiens, HT1197, 72 h) it was 1.2 µM; in the test with DU4475 cells (Homo sapiens, DU-4475, 72 h), 0.038 µM.

As for `O=C(c1cnc2ccc(-c3cc(Cl)c(O)c(Cl)c3)cc2c1Nc1cccc(CCN2CCCC2)c1)C1CC1` [Example 797, Cyclopropyl{6-(3,5-dichloro-4-hydroxyphenyl)-4-[3-(2-(pyrrolidin-1-yl)ethyl)phenylamino]quinolin-3-yl}methanone], the IC50 was 0.0056 µM at MELK (setting [2]); 0.31 µM in the test with T47D cells (Homo sapiens, T47D, 72 h); 0.022 µM with A549 cells (Homo sapiens, A549, 72 h); 0.12 µM in the test on 22Rv1 cells (Homo sapiens, 22Rv1, 72 h); 0.03 µM with DU4475 cells (Homo sapiens, DU-4475, 72 h).

For `CC(=O)c1cnc2ccc(-c3cc(Cl)c(O)c(Cl)c3)cc2c1Nc1cnn(C2CCN(C)CC2)c1` [Example 836, 1-(6-(3,5-dichloro-4-hydroxyphenyl)-4-((1-(1-methylpiperidin-4-yl)-1H-pyrazol-4-yl)amino)quinolin-3-yl)ethanone dihydrochloride], the IC50 was 0.0014 µM at MELK (setting [1]); 0.35 µM with T47D cells (Homo sapiens, T47D, 72 h); 0.45 µM with A549 cells (Homo sapiens, A549, 72 h); 0.27 µM in the test with 22Rv1 cells (Homo sapiens, 22Rv1, 72 h); 0.082 µM in the test on DU4475 cells (Homo sapiens, DU-4475, 72 h).

Regarding `CN(C)CCNc1ccc(Nc2c(C(=O)C3CC3)cnc3ccc(-c4cc(F)c(O)c(Cl)c4)cc23)cn1` [Example 777, (6-(3-chloro-5-fluoro-4-hydroxyphenyl)-4-(6-(2-(dimethylamino)ethylamino)pyridin-3-ylamino)quinolin-3-yl)(cyclopropyl)methanone trihydrochloride], the IC50 in the test on T47D cells (72 hours, trihydrochloride) is 0.12 µM; in the test on A549 cells (trihydrochloride), 0.12 µM; in the test with 22Rv1 cells (trihydrochloride) it was 0.17 µM; in the test with HT-1197 cells (trihydrochloride), 1.6 µM; in the test with DU4475 cells (trihydrochloride) it was 0.047 µM.

As to `CC(=O)c1cnc2ccc(-c3cc(Cl)c(O)c(Cl)c3)cc2c1N[C@H]1CCC[C@@H](CN2CCN(C)CC2)C1` [Example 835, 1-(6-(3,5-dichloro-4-hydroxyphenyl)-4-((1S,3R)-3-((4-methylpiperazin-1-yl)methyl)cyclohexylamino)quinolin-3-yl)ethanone hydrochloride], the IC50 in the test with T47D cells (Homo sapiens, T47D, 72 h) stood at 0.58 µM; in the test with A549 cells (Homo sapiens, A549, 72 h), 0.79 µM; in the test on 22Rv1 cells (Homo sapiens, 22Rv1, 72 h), 0.81 µM; with HT-1197 cells (Homo sapiens, HT1197, 72 h), 2.7 µM; with DU4475 cells (Homo sapiens, DU-4475, 72 h), 0.6 µM.
